EC50 data for 21 molecules are collected here from US8785488B2 (Exelixis Patent Company LLC, priority 2009, dated 2014).

Assay [1] addresses T1, human TGR5 (h-TGR5) (Homo sapiens, UniProt Q8TDU6).
T1 construct: expressed in transfected cells
T1 sequence (Q8TDU6 1-330): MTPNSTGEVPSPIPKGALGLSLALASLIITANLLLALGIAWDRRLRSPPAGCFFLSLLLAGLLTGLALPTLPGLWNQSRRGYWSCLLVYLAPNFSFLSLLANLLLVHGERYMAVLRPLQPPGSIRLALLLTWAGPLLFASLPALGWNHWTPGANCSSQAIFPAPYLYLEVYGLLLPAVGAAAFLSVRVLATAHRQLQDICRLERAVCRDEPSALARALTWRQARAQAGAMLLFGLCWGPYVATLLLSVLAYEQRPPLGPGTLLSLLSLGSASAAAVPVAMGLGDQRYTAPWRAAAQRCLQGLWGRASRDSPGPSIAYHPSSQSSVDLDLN
Briefly: TGR5/CRE-Luciferiase Assay (HEK 293 hTGR5/CRE-Luc cells). It is filed as cell-based. The following applies: h-TGR5 CRE-Luc EC50, Table 1; read-out: CRE-Luc (EC50). Summed up:
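HEK293 cells stably carrying hTGR5 and a CRE-luciferase reporter were exposed to serially diluted compounds (diluted in DMEM with 5% DMSO) for 6 h. Cells were then lysed in luciferase buffer, luminescence was read, and EC50 values were derived from dose-response curves.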

The target of assay [2] is T2, h-TGR5 (Homo sapiens, UniProt Q8TDU6).
T2 construct: expressed in transfected cells
T2 sequence (Q8TDU6 1-330): T1 sequence (Q8TDU6 1-330)
Briefly: TGR5 cAMP Assay using Cisbio cAMP Dynamic2 htrf kit (hTGR5CRE-luc HEK 293 cells). It is filed as cell-based. To be noted: h-TGR5 cAMP EC50, Table 1; read-out: cAMP (EC50). As for the experimental part: Compounds were diluted in DPBS with 5% DMSO (8-point serial dilution by half logs) in a 96-well plate and 1 μL was transferred to a 384-well assay plate in quadruplicate. The d2-cAMP and anti-cAMP Ab-cryptate stock solution were prepared as per the instructions in the Cisbio™ (Bedford, Mass.) kit. […] Cells were adjusted to 0.44×10^6 cells/ml followed by addition of IBMX to a final concentration of 0.5 mM. The cells were then mixed with d2-cAMP solution (7.1 mL cells+100 ul d2-cAMP) and 4000 cells (9 μL) were transferred to each well of the 384-well assay plate. Cells without d2-cAMP were added to eight wells as a negative control. The plate was covered and incubated at room temp for 30 min. Then 10 μL of Ab-cryptate solution was added to each well of the assay plate and incubated for 1 hr. The plate was read on an EnVision™ plate reader (Perkin-Elmer, Waltham, Mass.) and the DeltaF value was calculated as per the instructions in the Cisbio™ kit.
In the following tables, EC50 values determined according to the TGR5 cAMP Assay described herein (cAMP); EC50 values determined according to the TGR5/CRE-Luciferiase Assay described herein (CRE-Luc). […] The following compounds in Tables 1 and 2 were made by using procedures described in the above Schemes and Examples, and, where applicable, by making any necessary substitutions of known materials that one skilled in the art would ordinarily understand how to do.

By EC50 is commonly meant the midpoint of the concentration-response curve. For `CC(=O)N1CCC(CSc2ncc(C(C)(C)c3ccc(Cl)c(Cl)c3)n2-c2ccc(F)cc2)CC1` [1-acetyl-4-[({5-[1-(3,4-dichlorophenyl)-1-methylethyl]-1-(4-fluorophenyl)-1H-imidazol-2-yl}thio)methyl]piperidine], the EC50 in assay [1] was less than 100 nM; in assay [2], 100 to 1000 nM.

For `Cc1cc(-n2c(C(C)(C)c3ccc(F)c(F)c3)cnc2SCc2ccc(S(=O)(=O)NC(=O)NN3CCCC3)cc2Cl)ccc1F` [3-chloro-4-[({5-[1-(3,4-difluorophcnyl)-1-methylethyl]-1-(4-fluoro-3-methylphenyl)-1H-imidazol-2-yl}thio)methyl]-N-[(pyrrolidin-1-ylamino)carbonyl]benzenesulfonamide], the EC50 in assay [1] is 100 to 1000 nM; in assay [2] it was 1000 to 10000 nM.

For the molecule `COc1cc(C(C)(C)c2cnc(SCc3cc(C(=O)O)ccc3Cl)n2-c2ccc(F)cc2)ccc1Cl` [4-chloro-3-({[5-{1-[4-chloro-3-(methyloxy)phenyl]-1-methylethyl}-1-(4-fluorophenyl)-1H-imidazol-2-yl]thio}methyl)benzoic acid], the EC50 in assay [1] and in assay [2] was less than 100 nM in each case.

Take `CC(C)(c1ccc(Cl)c(Cl)c1)c1cnc(S(=O)(=O)NCc2ccc(F)cc2Cl)n1-c1ccc(F)cc1` [N-[(2-chloro-4-fluorophenyl)methyl]-5-[1-(3,4-dichlorophenyl)-1-methylethyl]-1-(4-fluorophenyl)-1H-imidazole-2-sulfonamide]: the EC50 in assay [1] is less than 100 nM; in assay [2] it was 100 to 1000 nM.

On to `COc1ccc(C(C)(C)c2cnc(SCc3c(F)cc(C(=O)O)cc3F)n2-c2ccc(F)cc2)cc1Cl` [4-({[5-{1-[3-chloro-4-(methyloxy)phenyl]-1-methylethyl}-1-(4-fluorophenyl)-1H-imidazol-2-yl]thio}methyl)-3,5-difluorobenzoic acid], for which the EC50 in assay [1] and in assay [2] was less than 100 nM in each case.

For `CC(C)(c1ccc(Cl)c(Cl)c1)c1cnc(SCc2c(F)cccc2Cl)n1-c1ccc(F)cc1F` [2-{[(2-chloro-6-fluorophenyl)methyl]thio}-5-[1-(3,4-dichlorophenyl)-1-methylethyl]-1-(2,4-difluorophenyl)-1H-imidazole], the EC50 in assay [1] and in assay [2] was 100 to 1000 nM in each case.

Take `CCOC(=O)NS(=O)(=O)c1ccc(CSc2ncc(C(C)(C)c3ccc(OC)c(Cl)c3)n2-c2ccc(F)cc2)c(Cl)c1` [ethyl {[3-chloro-4-({[5-{1-[3-chloro-4-(methyloxy)phenyl]-1-methylethyl}-1-(4-fluorophenyl)-1H-imidazol-2-yl]thio}methyl)phenyl]sulfonyl}carbamate]: the EC50 in assay [1] and in assay [2] was less than 100 nM throughout.

For `CC(C)(c1ccc(Cl)c(Cl)c1)c1cnc(SCC2CCN(c3nnn[nH]3)CC2)n1-c1ccc(F)cc1` [4-[({5-[1-(3,4-dichlorophenyl)-1-methylethyl]-1-(4-fluorophenyl)-1H-imidazol-2-yl}thio)methyl]-1-(1H-tetrazol-5-yl)piperidine], the EC50 in assay [1] is less than 100 nM; in assay [2] it was 100 to 1000 nM.

`COC[C@H]1CCCN1NC(=O)NS(=O)(=O)c1ccc(CSc2ncc(C(C)(C)c3ccc(Cl)c(OC)c3)n2-c2ccc(F)cc2)c(Cl)c1` [3-chloro-4-({[5-{1-[4-chloro-3-(methyloxy)phenyl]-1-methylethyl}-1-(4-fluorophenyl)-1H-imidazol-2-yl]thio}methyl)-N-[({(2R)-2-[(methyloxy)methyl]pyrrolidin-1-yl}amino)carbonyl]benzenesulfonamide]: the EC50 in assay [1] and in assay [2] was 100 to 1000 nM throughout.

For the molecule `COc1ccc(C(C)(C)c2cnc(SCc3cc(F)ccc3Cl)n2-c2ccc(F)cc2)cc1Cl` [2-{[(2-chloro-5-fluorophenyl)methyl]thio}-5-{1-[3-chloro-4-(methyloxy)phenyl]-1-methylethyl}-1-(4-fluorophenyl)-1H-imidazole], the EC50 in assay [1] was less than 100 nM; in assay [2], 100 to 1000 nM.

Turning to `CC(C)(c1ccc2onc(N)c2c1)c1cnc(SCc2c(F)cc(C(=O)NC(CCCNC(=N)N)C(=O)O)cc2Cl)n1-c1ccc(F)cc1` [N-2-({4-[({5-[1-(3-amino-1,2-benzisoxazol-5-yl)-1-methylethyl]-1-(4-fluorophenyl)-1H-imidazol-2-yl}thio)methyl]-3-chloro-5-fluorophenyl}carbonyl)-D-arginine], the EC50 in assay [1] and in assay [2] was less than 100 nM throughout.

In the case of `COc1cc(-n2c(C(C)(C)c3ccc(S(C)(=O)=O)cc3)cnc2SCc2ccc(Cl)c(-c3nnn[nH]3)c2)ccc1F` [5-(2-chloro-5-{[(1-[4-fluoro-3-(methyloxy)phenyl]-5-{1-methyl-1-[4-(methylsulfonyl)phenyl]ethyl}-1H-imidazol-2-yl)thio]methyl}phenyl)-1H-tetrazole], the EC50 in assay [1] and in assay [2] was 100 to 1000 nM each time.

As for `CC(C)(c1ccc(F)c(F)c1)c1cnc(SCc2ccc(S(=O)(=O)NC(=O)NN3CCCC3)cc2Cl)n1-c1ccc(F)c(F)c1` [3-chloro-4-[({1-(3,4-difluorophenyl)-5-[1-(3,4-difluorophenyl)-1-methylethyl]-1H-imidazol-2-yl}thio)methyl]-N-[(pyrrolidin-1-ylamino)carbonyl]benzenesulfonamide], the EC50 in assay [1] is 100 to 1000 nM; in assay [2], 1000 to 10000 nM.

As to `COc1ccc(C(C)(C)c2cnc(SCc3ccc(S(N)(=O)=O)cc3Cl)n2-c2ccc(F)cc2)cc1Cl` [3-chloro-4-({[5-{1-[3-chloro-4-(methyloxy)phenyl]-1-methylethyl}-1-(4-fluorophenyl)-1H-imidazol-2-yl]thio}methyl)benzenesulfonamide], the EC50 in assay [1] and in assay [2] was less than 100 nM each time.

As to `CC(C)(c1ccc(Cl)c(Cl)c1)c1cnc(SCc2c(F)cc(C(=O)O)cc2F)n1-c1ccc(F)cc1` [4-[({5-[1-(3,4-dichlorophenyl)-1-methylethyl]-1-(4-fluorophenyl)-1H-imidazol-2-yl}thio)methyl]-3,5-difluorobenzoic acid], the EC50 is less than 100 nM in assay [1] and 100 to 1000 nM in assay [2].

Turning to `CC(C)(c1ccc(Cl)c(Cl)c1)c1cnc(SCC2CCN(c3nnn[nH]3)CC2)n1-c1ccc(F)c(Cl)c1` [4-[({1-(3-chloro-4-fluorophenyl)-5-[1-(3,4-dichlorophenyl)-1-methylethyl]-1H-imidazol-2-yl}thio)methyl]-1-(1H-tetrazol-5-yl)piperidine], the EC50 in assay [1] was less than 100 nM; in assay [2], 100 to 1000 nM.

For `COc1cc(C(C)(C)c2cnc(SCC3CCN(c4nnn[nH]4)CC3)n2-c2ccc(F)cc2)ccc1Cl` [4-({[5-{1-[4-chloro-3-(methyloxy)phenyl]-1-methylethyl}-1-(4-fluorophenyl)-1H-imidazol-2-yl]thio}methyl)-1-(1H-tetrazol-5-yl)piperidine], the EC50 in assay [1] was less than 100 nM; in assay [2] it was 100 to 1000 nM.

On to `COc1cc(C(C)(C)c2cnc(SCc3c(F)ccc(S(N)(=O)=O)c3F)n2-c2ccc(F)cc2)ccc1Cl` [3-({[5-{1-[4-chloro-3-(methyloxy)phenyl]-1-methylethyl}-1-(4-fluorophenyl)-1H-imidazol-2-yl]thio}methyl)-2,4-difluorobenzenesulfonamide], for which the EC50 in assay [1] and in assay [2] was less than 100 nM each time.

Consider `CC(C)(c1ccc(Cl)c(Cl)c1)c1cnc(CCc2c(F)cccc2Cl)n1-c1ccc(F)cc1` [2-[2-(2-chloro-6-fluorophenyl)ethyl]-5-[1-(3,4-dichlorophenyl)-1-methylethyl]-1-(4-fluorophenyl)-1H-imidazole], for which the EC50 in assay [1] and in assay [2] was 100 to 1000 nM in each case.

Consider `COc1ccc(C(C)(C)c2cnc(COc3c(F)cccc3Cl)n2-c2ccc(F)cc2)cc1OC` [5-{1-[3,4-bis(methyloxy)phenyl]-1-methylethyl}-2-{[(2-chloro-6-fluorophenyl)oxy]methyl}-1-(4-fluorophenyl)-1H-imidazole], for which the concentration for a half-maximal effect (EC50) in assay [1] and in assay [2] was less than 100 nM each time.

Take `CNS(=O)(=O)c1ccc(C(C)(C)c2cnc(SCc3ccc(S(=O)(=O)NC(=O)NN4CCCC4)cc3Cl)n2-c2ccc(F)cc2)cc1Cl` [2-chloro-4-{1-[2-({[2-chloro-4-({[(pyrrolidin-1-ylamino)carbonyl]amino}sulfonyl)phenyl]methyl}thio)-1-(4-fluorophenyl)-1H-imidazol-5-yl]-1-methylethyl}-N-methylbenzenesulfonamide]: the EC50 in assay [2] lay within 1000 to 10000 nM.
